Molecules are shown by their SMILES.

Km data for five compounds are collected here from PMC5674860, “A novel, highly efficient β-glucosidase with a cellulose-binding domain: characterization and properties of native and recombinant proteins” (Biotechnology for Biofuels, 2017).

Holding throughout (format): biochemical
For test [1], the target named is T1, BGL-2T* (Talaromyces amestolkiae, UniProt A0A186NAE7).
T1 construct: gene bgl2; recombinant truncated form lacking linker and CBD; stop codon in retained third intron; pPIC9, Pichia pastoris KM71, secreted; monomer
Briefly: glucose release (Glucose-TR kit), Lineweaver-Burk. To be noted: 100 mM sodium acetate pH 4, optimal temperature (70 °C), BSA; read-out: K m (mM) / BGL-2T*. The text has this:
glucose release (Glucose-TR kit), Lineweaver-Burk on BGL-2T*

Test [2] has as its target T1, BGL-2T*. Description: o-nitrophenol release, Lineweaver-Burk. Particulars: acetate buffer, optimal pH (3-4) and temperature (70 °C), BSA; read-out: K m (mM) / BGL-2T*. The text has this:
o-nitrophenol release, Lineweaver-Burk on BGL-2T*

Test [3] concerns the target T1, BGL-2T*. Description: p-nitrophenol release at […] nm, Lineweaver-Burk. Particulars: acetate buffer, optimal pH (3-4) and temperature (70 °C), BSA; read-out: K m (mM) / BGL-2T*.

T1 sequence (A0A186NAE7 1-700 limits assumed): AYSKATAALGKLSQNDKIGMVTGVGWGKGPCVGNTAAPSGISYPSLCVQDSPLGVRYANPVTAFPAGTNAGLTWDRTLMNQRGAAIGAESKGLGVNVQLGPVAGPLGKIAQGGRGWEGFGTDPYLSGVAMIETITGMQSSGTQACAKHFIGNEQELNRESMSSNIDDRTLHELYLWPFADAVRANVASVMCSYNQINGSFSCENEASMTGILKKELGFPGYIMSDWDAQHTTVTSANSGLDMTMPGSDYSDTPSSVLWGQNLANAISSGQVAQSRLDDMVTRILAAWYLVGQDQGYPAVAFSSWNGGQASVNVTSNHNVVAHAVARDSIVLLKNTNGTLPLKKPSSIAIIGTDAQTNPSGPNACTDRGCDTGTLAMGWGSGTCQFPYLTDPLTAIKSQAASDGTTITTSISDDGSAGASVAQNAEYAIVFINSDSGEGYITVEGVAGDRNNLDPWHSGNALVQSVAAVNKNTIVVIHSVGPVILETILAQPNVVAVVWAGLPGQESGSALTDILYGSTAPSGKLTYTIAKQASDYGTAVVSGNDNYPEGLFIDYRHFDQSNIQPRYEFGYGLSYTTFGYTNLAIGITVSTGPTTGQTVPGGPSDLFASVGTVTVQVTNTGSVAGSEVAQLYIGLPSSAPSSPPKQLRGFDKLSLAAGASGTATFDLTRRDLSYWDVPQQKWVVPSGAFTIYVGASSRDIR

For `OC[C@H]1O[C@@H](O[C@H]2[C@H](O)[C@@H](O)[C@H](O[C@H]3[C@H](O)[C@@H](O)[C@H](O[C@H]4[C@H](O)[C@@H](O)[C@H](O[C@H]5[C@H](O)[C@@H](O)C(O)O[C@@H]5CO)O[C@@H]4CO)O[C@@H]3CO)O[C@@H]2CO)[C@H](O)[C@@H](O)[C@@H]1O` (some centres unmarked) [Cellopentaose], the Km on BGL-2T* [1] stood at 0.68 ± 0.01 mM.

In the case of `OC[C@H]1O[C@@H](O[C@H]2[C@H](O)[C@@H](O)[C@H](O[C@H]3[C@H](O)[C@@H](O)[C@H](O[C@H]4[C@H](O)[C@@H](O)C(O)O[C@@H]4CO)O[C@@H]3CO)O[C@@H]2CO)[C@H](O)[C@@H](O)[C@@H]1O` (some centres unmarked) [Cellotetraose], the Km at BGL-2T* [1] stood at 0.49 ± 0.03 mM.

Take `OC[C@H]1O[C@@H](O[C@H]2[C@H](O)[C@@H](O)[C@H](O[C@H]3[C@H](O)[C@@H](O)C(O)O[C@@H]3CO)O[C@@H]2CO)[C@H](O)[C@@H](O)[C@@H]1O` (some centres unmarked) [Cellotriose]: the Km on BGL-2T* [1] amounted to 1.42 ± 0.06 mM.

For the compound `O=[N+]([O-])c1ccccc1O[C@@H]1O[C@H](CO)[C@@H](O)[C@H](O)[C@H]1O` [oNPG, o-nitrophenyl-β-D-glucopyranoside], the Km at BGL-2T* [2] came to 0.67 ± 0.04 mM.

As for `O=[N+]([O-])c1ccc(O[C@@H]2O[C@H](CO)[C@@H](O)[C@H](O)[C@H]2O)cc1` [pNPG, p-nitrophenyl-β-D-glucopyranoside], the Km at BGL-2T* [3] worked out at 0.34 ± 0.02 mM.
